Measured values reported in PMC8779240 (Bioorganic & medicinal chemistry letters, 2021).

What was measured:
[1] = tested on: S. aureus ParC^S80F GyrA^S84L; format: cell-based, Staphylococcus aureus; settings: ParC^S80F/GyrA^S84L strain
Escherichia coli = test: MIC against E. coli; format: cell-based

| Compound | potency compared with fluoroquinolone parent, MIC data in units of μM [1] | other results |
| --- | --- | --- |
| CC(=O)O[C@H]1[C@H](C)[C@H](O)[C@H](C)[C@@H](O)[C@@H](C(C)OC(=O)C(C)(C)CC(=O)O)/C=C/C=C(/C)C(=O)Nc2c3oc4cc(NC5(c6c(F)cc7c(=O)c(C(=O)O)cn8c7c6OC[C@@H]8C)CC5)cc(O)c4nc-3c3c4c(c(C)c(O)c3c2=O)O[C@](C)(O/C=C/[C@H](O[C@H]2C[C@@H]3OCO[C@@H]3[C@@H](C)O2)[C@H]1C)C4=O (stereo partly shown) [Compound 5b] | surpassed the potency of their fluoroquinolone parents |  |
| CC(=O)O[C@H]1[C@H](C)[C@H](O)[C@H](C)[C@@H](O)[C@@H](C(C)OC(=O)C(C)(C)CC(=O)O)/C=C/C=C(/C)C(=O)Nc2c3oc4cc(N5Cc6cc(-c7ccc8c(=O)c(C(=O)O)cn(C9CC9)c8c7OC(F)F)ccc6[C@H]5C)cc(O)c4nc-3c3c4c(c(C)c(O)c3c2=O)O[C@](C)(O/C=C/[C@H](O[C@H]2C[C@@H]3OCO[C@@H]3[C@@H](C)O2)[C@H]1C)C4=O (stereo partly shown) [Compound 5c] | surpassed the potency of their fluoroquinolone parents |  |
| CC(=O)O[C@H]1[C@H](C)[C@H](O)[C@H](C)[C@@H](O)[C@@H](C(C)OC(=O)C(C)(C)CC(=O)O)/C=C/C=C(/C)C(=O)NC2=CC(=O)c3c(c(O)c(C)c4c3C(=O)[C@@](C)(O/C=C/[C@H](O[C@H]3C[C@@H]5OCO[C@@H]5[C@@H](C)O3)[C@H]1C)O4)C2=O (stereo partly shown) [Compound 1, kanglemycin A] |  | Gram-negative activity against E. coli (Escherichia coli): did not show Gram-negative activity |
| COc1c(N2C[C@@H]3CCCN(c4cc(O)c5nc6c7c8c9c(C)c(O)c7c(=O)c(c-6oc5c4)NC(=O)/C(C)=C\C=C\[C@H](C(C)OC(=O)C(C)(C)CC(=O)O)[C@H](O)[C@@H](C)[C@@H](O)[C@@H](C)[C@H](OC(C)=O)[C@H](C)[C@@H](O[C@H]4C[C@@H]5OCO[C@@H]5[C@@H](C)O4)/C=C/O[C@@](C)(O9)C8=O)[C@@H]3C2)c(F)cc2c(=O)c(C(=O)O)cn(C3CC3)c12 (stereo partly shown) [Compound 5e] | surpassed the potency of their fluoroquinolone parents |  |
| CC(=O)O[C@H]1[C@H](C)[C@H](O)[C@H](C)[C@@H](O)[C@@H](C(C)OC(=O)C(C)(C)CC(=O)O)/C=C/C=C(/C)C(=O)Nc2c3oc4cc(N5CCN(c6cc7c(cc6F)c(=O)c(C(=O)O)cn7C6CC6)CC5)cc(O)c4nc-3c3c4c(c(C)c(O)c3c2=O)O[C@](C)(O/C=C/[C@H](O[C@H]2C[C@@H]3OCO[C@@H]3[C@@H](C)O2)[C@H]1C)C4=O (stereo partly shown) [Compound 5a] |  | fold improvement in MIC compared to ciprofloxacin in units of μM ([1]; MIC in μM): ~ 277 fold; fold improvement in activity compared to ciprofloxacin ([1]; MIC in μg/mL): 64 fold |
| COc1c(N2C[C@@H]3CCCN(CCCNc4cc(O)c5nc6c7c8c9c(C)c(O)c7c(=O)c(c-6oc5c4)NC(=O)/C(C)=C\C=C\[C@H](C(C)OC(=O)C(C)(C)CC(=O)O)[C@H](O)[C@@H](C)[C@@H](O)[C@@H](C)[C@H](OC(C)=O)[C@H](C)[C@@H](O[C@H]4C[C@@H]5OCO[C@@H]5[C@@H](C)O4)/C=C/O[C@@](C)(O9)C8=O)[C@@H]3C2)c(F)cc2c(=O)c(C(=O)O)cn(C3CC3)c12 (stereo partly shown) [Compound 6e] | surpassed the potency of their fluoroquinolone parents |  |
